In ChEMBL document CHEMBL3352773, “Synthesis and evaluation of the 2,4-diaminoquinazoline series as anti-tubercular agents” (Bioorg Med Chem, 2014):

How the values were obtained:
Type in all cases: functional
[1] = tested on: Mycobacterium tuberculosis; assay: Antituberculosis activity against Mycobacterium tuberculosis H37Rv RM1 IS6110 at nt 801 mutant assessed as complete growth inhibition after 5 days
[2] = tested on: Mycobacterium tuberculosis; assay: Antituberculosis activity against Mycobacterium tuberculosis H37Rv RM2 GT deletion at 175 to 176 mutant assessed as complete growth inhibition after 5 days
[3] = tested on: Mycobacterium tuberculosis; assay: Antituberculosis activity against Mycobacterium tuberculosis H37Rv RM7 C115W mutant assessed as complete growth inhibition after 5 days

Measured: MIC

FC(F)(F)c1ccc(CNc2nc(N3CCCCC3)nc3ccccc23)cc1
25 µM: all assays above
